The structures appear in SMILES notation. Active and inactive are the calls of the source. No cut-off for these calls is given here.

Test [1] has as its system MDA-MB-231. Nature of the test: Induction of apoptosis in human MDA-MB-231 cells assessed as increase in gamma-H2AX level up to 10 uM after 24 hrs by Western blot analysis. Format: functional, cell-based. Background: In western blotting, separated proteins are transferred to a membrane and probed.
The test system of another test is Raji. Kind of test: Potency index, ratio of SAHA IC50 to compound IC50 for human Raji cells. Format: functional.
In test [2] the test system is MDA-MB-231. Kind of test: Induction of apoptosis in human MDA-MB-231 cells assessed as increase in cleave caspase-3 level up to 10 uM measured after 24 hrs by Western blot analysis. Format: functional, cell-based.
For a further test, the system named is K562. Kind of test: Antiproliferative activity against human K562 cells after 72 hrs by MTT assay. Format: functional, cell-based. The conditions noted are these: K562, 72 h.
Test [3] addresses T1, Protein deacetylase HDAC6 (Homo sapiens, UniProt Q9UBN7).
T1 sequence (Q9UBN7 whole entry): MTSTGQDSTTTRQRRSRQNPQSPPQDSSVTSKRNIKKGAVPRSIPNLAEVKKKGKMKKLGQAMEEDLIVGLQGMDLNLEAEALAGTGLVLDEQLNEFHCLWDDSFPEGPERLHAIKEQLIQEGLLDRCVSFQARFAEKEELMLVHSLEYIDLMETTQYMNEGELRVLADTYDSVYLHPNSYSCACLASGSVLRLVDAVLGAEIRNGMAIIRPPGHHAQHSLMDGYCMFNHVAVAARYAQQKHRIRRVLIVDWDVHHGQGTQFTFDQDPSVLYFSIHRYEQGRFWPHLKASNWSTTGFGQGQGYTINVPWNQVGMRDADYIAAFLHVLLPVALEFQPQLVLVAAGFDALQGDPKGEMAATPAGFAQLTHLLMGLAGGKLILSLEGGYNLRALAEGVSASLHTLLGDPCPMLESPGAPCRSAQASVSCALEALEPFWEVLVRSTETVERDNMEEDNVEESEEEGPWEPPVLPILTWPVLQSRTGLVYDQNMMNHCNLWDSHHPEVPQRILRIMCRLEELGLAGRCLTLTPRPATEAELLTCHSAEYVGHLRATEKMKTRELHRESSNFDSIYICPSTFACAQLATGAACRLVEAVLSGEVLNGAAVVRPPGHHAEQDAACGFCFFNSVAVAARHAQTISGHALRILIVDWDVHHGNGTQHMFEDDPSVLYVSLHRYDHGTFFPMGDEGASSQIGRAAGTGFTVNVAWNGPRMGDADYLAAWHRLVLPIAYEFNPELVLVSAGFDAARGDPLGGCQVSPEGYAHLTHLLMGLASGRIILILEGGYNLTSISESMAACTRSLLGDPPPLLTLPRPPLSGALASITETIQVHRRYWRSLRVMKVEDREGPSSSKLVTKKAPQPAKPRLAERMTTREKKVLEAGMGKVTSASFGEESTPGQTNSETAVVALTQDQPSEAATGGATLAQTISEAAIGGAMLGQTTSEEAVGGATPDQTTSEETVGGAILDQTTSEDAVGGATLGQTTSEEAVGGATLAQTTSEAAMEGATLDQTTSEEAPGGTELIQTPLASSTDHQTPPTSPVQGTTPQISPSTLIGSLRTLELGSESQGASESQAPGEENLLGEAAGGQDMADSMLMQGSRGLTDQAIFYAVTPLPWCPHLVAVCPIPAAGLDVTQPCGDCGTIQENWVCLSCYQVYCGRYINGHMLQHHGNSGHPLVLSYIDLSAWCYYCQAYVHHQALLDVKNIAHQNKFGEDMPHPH
Nature of the test: Inhibition of HDAC6 (unknown origin) using acetylated peptide substrate preincubated for 15 mins followed by substrate addition measured after 60 mins by fluorescence analysis.

The test system of test [4] is MDA-MB-231. Kind of test: Induction of apoptosis in human MDA-MB-231 cells assessed as viable cells at 10 uM after 48 hrs by Annexin V-FITC/propidium iodide staining based flow cytometry (reference value: 94.9%). Format: functional. The conditions noted are these: MDA-MB-231, 48 h, read-out: Activity. In general terms: Flow cytometry measures light scatter and fluorescence of single cells or particles in a stream.

As to `O=C(/C=C/c1ccc(CCNC(=O)c2cc(Cc3n[nH]c(=O)c4ccccc34)ccc2F)cc1)NO`, the result with MDA-MB-231 [1] and in the test with MDA-MB-231 [2] was Active. Moreover, the “Ratio IC50” value with Raji was found to be 7. Further, the concentration for half-maximal inhibition (IC50) – broadly, the concentration at which inhibition is half-maximal – with K562 is 5.55 µM; in test [3], 8.21 nM. For the same compound, the viability at 10 µM with MDA-MB-231 [4] turned out to be 6.79%.

These data come from ChEMBL document CHEMBL4052667 (Bioorg Med Chem, 2017).
